Source: PubChem BioAssay (NCI)
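Results reflect a 48-hour exposure of cells in 96-well plates to compound at five concentrations. TGI is the concentration that stops growth completely.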

Columns and labels:
Experiment in all cases: inhibition of tumour cell growth, NCI panel, 48 h
A549 NSCLC = tested on: A549 NSCLC
ACHN renal = tested on: ACHN renal
BT-549 breast = tested on: BT-549 breast
COLO 205 colon = tested on: COLO 205 colon
DU-145 prostate = tested on: DU-145 prostate
HCC-2998 colon = tested on: HCC-2998 colon
HOP-62 NSCLC = tested on: HOP-62 NSCLC
MALME-3M melanoma = tested on: MALME-3M melanoma
NCI-H460 lung = tested on: NCI-H460 lung
OVCAR-5 ovarian = tested on: OVCAR-5 ovarian
RPMI-8226 leukemia = tested on: RPMI-8226 leukemia
RXF 393 renal = tested on: RXF 393 renal
SF-295 CNS = tested on: SF-295 CNS
SK-MEL-28 melanoma = tested on: SK-MEL-28 melanoma
SK-OV-3 ovarian = tested on: SK-OV-3 ovarian
SNB-75 CNS = tested on: SNB-75 CNS
SR leukemia = tested on: SR leukemia
SW-620 colon = tested on: SW-620 colon
T-47D breast = tested on: T-47D breast
UACC-257 melanoma = tested on: UACC-257 melanoma

Row | Compound | TGI (A549 NSCLC) [µM] | TGI (ACHN renal) [µM] | TGI (BT-549 breast) [µM] | TGI (COLO 205 colon) [µM] | TGI (DU-145 prostate) [µM] | TGI (HCC-2998 colon) [µM] | TGI (HOP-62 NSCLC) [µM] | TGI (MALME-3M melanoma) [µM] | TGI (NCI-H460 lung) [µM] | TGI (OVCAR-5 ovarian) [µM] | TGI (RPMI-8226 leukemia) [µM] | TGI (RXF 393 renal) [µM] | TGI (SF-295 CNS) [µM] | TGI (SK-MEL-28 melanoma) [µM] | TGI (SK-OV-3 ovarian) [µM] | TGI (SNB-75 CNS) [µM] | TGI (SR leukemia) [µM] | TGI (SW-620 colon) [µM] | TGI (T-47D breast) [µM] | TGI (UACC-257 melanoma) [µM]
1 | CCOC(=O)c1ccc(NC(=O)O/N=C(/Cl)C(C)C)cc1 | 47.7 | 27 | 32.7 | 5.77 | > 67.2 | 33.2 | 32.2 | 8.49 | 38.3 | 32.9 | 24.8 | 30.6 | 34.8 | 31 | 33.4 | 27.4 | 11.2 | 4.32 | 6.62 | 32
2 | Cc1nc2c(=O)n(C)c(=O)nc-2n(CCO)c1C | > 100 | > 100 | > 100 | > 100 | > 100 | > 100 | > 100 | > 100 | > 100 | > 100 | > 100 | > 100 | > 100 | > 100 | > 100 | > 100 | > 100 | > 100 | > 100 | > 100
3 | COC(=O)C1=C([C@H]2COC(C)(C)O2)[C@H]2C[C@@H]1[C@@H]1OC(C)(C)O[C@@H]12 | > 100 | > 100 | > 100 | > 100 | > 100 | > 100 | > 100 | > 100 | > 100 | > 100 | > 100 | > 100 | > 100 | > 100 | > 100 | > 100 | > 100 | > 100 | > 100 | > 100
4 | CCOC(=O)/C(=C\c1ccnc2ccccc12)P(=O)(OCC)OCC | 14.7 | 4.82 | 4.22 | 4.63 | 7.52 | 26.7 | 5.91 | 3.71 | 8.72 | 6.78 | 5.93 | 4.41 | 10.5 | 3.35 | 15.5 | 12 | 5.38 | 5.27 | 9.11 | 14
5 | N#CC(c1ccccc1)N(CCc1ccccc1)C(=O)c1ccccc1 (stereo not given) | > 100 | > 100 | > 100 | > 100 | > 100 | > 100 | > 85.8 | > 100 | > 100 | > 100 | > 100 | > 100 | > 100 | > 100 | > 100 | 57.2 | > 100 | > 100 | > 100 | > 100
6 | N#C/C(=C\c1ccc(F)cc1)c1nc2ccccc2c(=O)[nH]1 | > 100 | > 100 | > 100 | > 100 | > 100 | > 100 | > 100 | > 100 | > 100 | > 100 | > 100 | > 100 | > 100 | > 100 | > 100 | 74.5 | > 100 | > 100 | > 100 | > 100
7 | COc1ccc(/C=N/NC(=O)c2ccccc2Nc2ccccc2C(=O)N/N=C/c2ccc(OC)cc2)cc1 | > 100 | > 100 | > 100 | > 100 | > 100 | > 100 | > 100 | > 100 | > 100 | > 100 | > 100 | > 100 | > 100 | > 100 | > 100 | > 100 | > 100 | > 100 | > 100 | > 100
